{"source": "patent US20070218119A1", "about": "“STEROL ENRICHED MIXED LAMMELARITY AMPHOTERICIN INTERCALATING LIPOSOMES IN SALINE AND THE PROCESS FOR THEIR PREPARATION” (priority 2004, published 2007)", "origin": "cited, not measured here", "conditions": "conventional Amphotericin B mixed with 0.9% Sodium Chloride (Martindale)"}
{"smiles": "C[C@@H]1[C@H](O)[C@@H](C)/C=C/C=C/C=C/C=C/C=C/C=C/C=C/[C@H](O[C@@H]2O[C@H](C)[C@@H](O)[C@H](N)[C@@H]2O)C[C@@H]2O[C@](O)(C[C@@H](O)C[C@@H](O)[C@H](O)CC[C@@H](O)C[C@@H](O)CC(=O)O[C@H]1C)C[C@H](O)[C@H]2C(=O)O", "note": "[conventional Amphotericin B, Amphotericin B]", "values": [{"measurement": "precipitation in 0.9% Sodium Chloride", "result": "precipitation of Amphotericin B"}]}
